Molecules are shown by their SMILES.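 Values below derive from 48-hour exposures of cells grown in 96-well plates, with endpoints linearly interpolated between the two concentrations bracketing the appropriate inhibition level. At the GI50, growth is halved.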 Calls of active or inactive are those of the source. Cut-off read from the data, not from the text of the source: active = GI50 up to about 1.1 µM and inactive = higher.

The record followed here is ChEMBL document CHEMBL1201862, “PubChem BioAssay data set” (2004).

What all share (test): NCI tumour cell line growth inhibition, 48 h
Assay [1] has as its system RXF 393.
Assay [2] has as its system OVCAR-4.
For assay [3], the system named is HL-60.
The test system of assay [4] is A549.
The subject of assay [5] is UO-31.
The subject of assay [6] is UACC-62.
The subject of assay [7] is SF-295.
Assay [8] concerns A498.
Assay [9] deals with OVCAR-3.
Assay [10] deals with NCI-H226.
Assay [11] relates to SW-620.
The test system of assay [12] is MOLT-4.
For assay [13], the system named is HOP-92.
For assay [14], the system named is HCC 2998.
Assay [15] concerns NCI/ADR-RES.
Assay [16] relates to COLO 205.
For assay [17], the system named is KM12.
For assay [18], the system named is HT-29.
In assay [19] the test system is SK-MEL-2.
Assay [20] deals with NCI-H460.

For `Cc1csc2[n+]1C(=O)/C(=C\c1ccc([N+](=O)[O-])cc1)S2`, the GI50 in [1] is 29 µM (inactive); in assay [2], 42.3 µM (inactive); in assay [3], 26.2 µM (inactive); in assay [4], 27.4 µM (inactive); in assay [5] it was 15.3 µM (inactive); in assay [6] it was 19.2 µM (inactive). Moreover, the GI50 is 23.9 µM (inactive) in assay [7]; 22.7 µM (inactive) in assay [8]; 15.3 µM (inactive) in assay [9]; 4.1 µM (inactive) in assay [10]; 40.8 µM (inactive) in assay [11]; 29.5 µM (inactive) in [12]. For the same compound, the GI50 was 19.4 µM (inactive) in assay [13]; 21.6 µM (inactive) in assay [14]; 25.4 µM (inactive) in assay [15]; 19.7 µM (inactive) in assay [16]; 20.5 µM (inactive) in assay [17]; 23.9 µM (inactive) in assay [18]. For the same compound, the GI50 in assay [19] is 25.6 µM (inactive); in assay [20] it was 22.9 µM (inactive).

`O=c1[nH]nc(-c2ccccc2)n1Nc1ccccc1`: the GI50 in assay [1], in assay [2], in assay [3], in [4], in assay [5] and in [6] was > 100 µM (inactive) each time. Also, the GI50 in assay [7], in [8], in assay [9], in [10], in assay [11] and in [12] was > 100 µM (inactive) in each case. For the same compound, the GI50 in assay [13], in assay [14], in assay [15], in assay [16], in assay [17] and in assay [18] was > 100 µM (inactive) each time. For the same compound, the GI50 in [19] and in [20] was > 100 µM (inactive) each time.

As to `COc1ccc2nc3ccccc3c(NCCCCCCN(CCCl)CCCl)c2c1`, the GI50 in [1] was 0.187 µM (active); in assay [2], 0.158 µM (active); in assay [3], 0.0122 µM (active); in assay [4] it was 0.054 µM (active); in assay [5], 0.123 µM (active); in [6], 0.0628 µM (active). Further, the GI50 in [7] was 0.0767 µM (active); in [8], 0.405 µM (active); in [9] it was 0.0627 µM (active); in assay [10], 0.25 µM (active); in assay [11] it was 0.0199 µM (active); in [12], 0.0124 µM (active). Moreover, the GI50 was 0.124 µM (active) in assay [13]; 0.226 µM (active) in assay [14]; 0.0883 µM (active) in assay [15]; 0.014 µM (active) in assay [16]; 0.151 µM (active) in assay [17]; 0.0248 µM (active) in assay [18]. Besides, the GI50 was 0.297 µM (active) in assay [19] and 0.0346 µM (active) in assay [20].

For `N#Cc1c(-c2ccccc2)cc(Nc2ccc(F)cc2)n2c1nc1ccccc12`, the GI50 in assay [1] was 2.66 µM (inactive); in assay [2], 4.62 µM (inactive); in assay [3], > 100 µM (inactive); in assay [4], 2.28 µM (inactive); in [5], 1.73 µM (inactive); in [6] it was 1.84 µM (inactive). Also, the GI50 is 2.22 µM (inactive) in [7]; 2.74 µM (inactive) in assay [8]; 3.13 µM (inactive) in assay [9]; 2.81 µM (inactive) in assay [10]; 4.08 µM (inactive) in assay [11]; 7.03 µM (inactive) in assay [12]. The GI50 is 1.01 µM (active) in assay [13]; 3.75 µM (inactive) in [14]; 2.26 µM (inactive) in [15]; 1.58 µM (inactive) in [16]; 3.52 µM (inactive) in assay [17]; 2.26 µM (inactive) in [18]. Further, the values for the GI50 in assay [19] and in [20] were 1.43 µM (inactive) and 2.36 µM (inactive), respectively.

As for `NC1=Nc2ccccc2Sc2nnc(-c3ccc(Cl)cc3)n21`, the GI50 in [1] was 22.8 µM (inactive); in assay [2], > 100 µM (inactive); in [3], 8.59 µM (inactive); in [4] it was 49.3 µM (inactive); in assay [5] it was > 100 µM (inactive); in [6], 61.4 µM (inactive). Besides, the GI50 in [7] is 29.6 µM (inactive); in [8], 20.4 µM (inactive); in assay [9], > 100 µM (inactive); in assay [10] it was > 100 µM (inactive); in [11] it was 57.1 µM (inactive); in assay [12], 13.9 µM (inactive). Further, the GI50 was 68.2 µM (inactive) in assay [13]; > 100 µM (inactive) in [14]; 33.2 µM (inactive) in assay [15]; 76.7 µM (inactive) in assay [16]; 98.2 µM (inactive) in [17]; > 100 µM (inactive) in assay [18]. Further, the GI50 is > 100 µM (inactive) in [19] and 21.9 µM (inactive) in assay [20].

As to `Cc1cc(-c2ccc(C(=O)C(c3ccccc3)(c3ccccc3)c3ccccc3)[nH]2)on1`, the GI50 in assay [1] was 2.2 µM (inactive); in assay [2], 32.3 µM (inactive); in assay [3] it was 3.56 µM (inactive); in assay [4], 12 µM (inactive); in assay [5], 15.2 µM (inactive); in assay [6] it was 16.1 µM (inactive). Moreover, the GI50 was 14.2 µM (inactive) in assay [7]; 37.1 µM (inactive) in [8]; 22.1 µM (inactive) in [9]; 16.9 µM (inactive) in assay [10]; 19.8 µM (inactive) in assay [11]; 21.8 µM (inactive) in [12]. In addition, the GI50 in assay [13] is 16.1 µM (inactive); in assay [14] it was 11.2 µM (inactive); in assay [15], 15.8 µM (inactive); in assay [16], 15.9 µM (inactive); in [17], 15.6 µM (inactive); in assay [18], 11.4 µM (inactive). The GI50 was 14.6 µM (inactive) in assay [19] and 7.21 µM (inactive) in assay [20].

With `Cc1ccc(NNc2cc(=O)[nH]c(=O)[nH]2)cc1Cl`, the GI50 was 16.5 µM (inactive) in assay [1]; 14.7 µM (inactive) in assay [2]; 3.08 µM (inactive) in assay [3]; 29 µM (inactive) in assay [4]; 3.25 µM (inactive) in assay [5]; 18.3 µM (inactive) in assay [6]. For the same compound, the GI50 was 37.5 µM (inactive) in [7]; > 100 µM (inactive) in assay [8]; 14.8 µM (inactive) in assay [9]; 56.9 µM (inactive) in assay [10]; 14.4 µM (inactive) in assay [11]; 4.98 µM (inactive) in [12]. For the same compound, the GI50 in assay [13] is 14.4 µM (inactive); in [14] it was 15.7 µM (inactive); in [15], 95.3 µM (inactive); in [16], 16.6 µM (inactive); in assay [17], 27.3 µM (inactive); in [18], 15 µM (inactive). Besides, the GI50 was 16.5 µM (inactive) in assay [19] and 33.2 µM (inactive) in [20].
